Assay results as given in patent US12274740B2, “Microbiome protection from oral antibiotics” (Theriva Biologics, Inc., priority 2016, dated 2025).
Several values for one entry are separate records, joined by “and”; a condition that tells them apart may be missing. Equal entries are not always repeated.

What was measured:
[1] = Two arm PK study in dogs: amoxicillin levels in dog serum with or without Formulation 2 (TABLE 17); type: in vivo, beagle dogs; details: for Amoxicillin levels in dog serum, 0.00 hr: pre-dose
Description: Formulation 2 (TABLE 17) was chosen for evaluation in dogs. A two arm pharmacokinetics (PK) study was performed in three non-naïve male beagle dogs (age 2 years, approximately 12 kg). Animals were fasted overnight prior to the day of dosing in each arm. In Arm 1, the dogs were administered one dose of an amoxicillin suspension (amoxicillin powder, Sandoz, Lot FW1707, reconstituted in apple juice to 400 mg/5 ml) via oral gavage at 80 mg/kg. Animals were returned to their cages post-dose and fed 1.5 hrs after amoxicillin dosing. In Arm 2, dogs were administered an amoxicillin suspension (80 mg/kg, prepared as in Arm 1) via oral gavage. Immediately after the oral amoxicillin was dosed, the animals received one size 4 capsule of Formulation 2 (TABLE 17) containing 10 mg of SYN-004. The capsules were not chewed and were swallowed whole. Capsules were dosed by hand by placing the capsule in the back of the dog's mouth and followed by 6 mL of Mott's 100% apple juice in a syringe. Animals were returned to their cages post-dose and fed 1.5 hrs after amoxicillin dosing. There was a seven day washout period between the two arms. In both arms of the study, blood (approximately 2 mL) was collected for serum PK analysis at pre-dose, and 30 minutes, 1, 2, 3, 4, 6, 8, and 10 hrs post-dose. Serum was collected and immediately frozen at −80° C. Feed was ad-libitum throughout both arms, except during dosing, which was done fasted as described. […] Animals were returned to the colony following the last blood collection.
Serum was analyzed for amoxicillin levels using a validated liquid chromatography (LC) method with tandem mass spectrometry detection (LC/MS/MS). Briefly, the serum samples were extracted using the protein precipitation extraction method and analyzed using reverse phase LC. Amoxicillin and amoxicillin-d4 (internal standard) were detected using tandem MS. The study was performed using Applied Biosystems Triple Quad API 500 LC/MS/MS system with Turbo ion spray interfaces. The data were acquired and analyzed by Applied Biosystems “Analyst” software, version 1.5. The lower limit of quantitation (LLOQ) for amoxicillin was 101.723 ng/ml. The upper limit of quantitation (ULOQ) for amoxicillin was 20344.678 ng/ml. A calibration curve consisting of two control blanks, two zero standards and ten non-zero standards, prepared in naïve dog serum, covering a range of 101.723 to 20344.678 ng/ml, were run with each sample batch. Amoxicillin levels were similar for each animal in Arm 1 and Arm 2 of the study (TABLE 19). The amoxicillin serum levels in Arm 1 and Arm 2 for each dog were plotted separately and the area under the curves was calculated (FIG. 25). The area under the curve for each animal was similar in Arm 1 and Arm 2 of the study. […] Therefore, the strategy to reduce the potential for premature release, release in the small intestine prior to absorption of orally-delivered amoxicillin, by using FS 30 D-coated SYN-004 layered sucrose pellets incorporated inside FS 30 D-coated capsule, or the “nested” strategy, was successful as indicated by the similar amoxicillin blood levels in each dog with and without SYN-004.

[2] = Piglet study of modified nested SYN-004 formulation with oral amoxicillin; type: in vivo, Yorkshire piglets; details: pig serum three hours after oral amoxicillin 40 mg/kg
Description: Formulation 2 (TABLE 17) capsules consisting of FS 30 D-coated SYN-004 pellets within FS 30 D-coated capsules were prepared for testing in normal piglets. For this formulation, size 9H gelatin capsules (small capsules, 2.7 mm diameter, 5 mm length) were filled with 3 pellets of FS 30 D-coated SYN-004 sucrose cores, then coated with FS 30 D. The coated 9H capsule containing the SYN-004 pellets was then inserted into a size 5 gelatin capsule for ease of delivery to the pigs (FIG. 26). Each FS 30 D-coated pellet of SYN-004 contained […] of SYN-004. Therefore, the total SYN-004 dose was 0.5 mg/size 5 gelatin capsule. The anticipated advantage of this nested strategy using the small 9H capsules is that the gelatin capsule will dissolve in the stomach, releasing the small FS 30 D-coated 9H capsule that is protected from stomach acid and is small enough to pass through the gastric pylorus without the need for stomach emptying. […] Amoxicillin levels were similar in animals treated with amoxicillin alone and with amoxicillin plus the SYN-004 (FIG. 27; TABLE 20).

[3] = in vivo; details: Yorkshire, pig
Description: A study was performed using normal piglets to compare the three, modified-release formulations of SYN-004 as described in Example 2, and the original SYN-004 formulation (Enteric pH 5.5) as described in Example 1, delivered orally with oral amoxicillin, to evaluate the effect on amoxicillin serum levels and protection of the microbiome from amoxicillin-induced dysbiosis (FIG. 20).
A total of 25, two month old Yorkshire piglets, approximately 20 kg each, were used for this study. All 25 animals were treated with oral amoxicillin twice a day for a total of 7 days, in addition, Groups 2-5 received SYN-004 four times a data starting the day before amoxicillin treatment for a total of 9 days (TABLE 7).
On Study Day 0, Groups 2-5 (Pigs 6-25) received one size 0 capsule of one of each of the four SYN-004 formulations, containing 50 mg of SYN-004, orally, four times a day at 7 am, 12 pm, 5 pm, and 10 pm for a total of 9 days. Pigs were fed 3 times a day, after SYN-004 dosing at 7 am, after SYN-004 dosing at 12 pm, and after SYN-004 dosing at 5 pm. Beginning on Study Day 1, all groups, 1-5 (Pigs 1-25), received oral amoxicillin (fruit flavored oral suspension, Sandoz, NDC: 0781-6157-46, Lot #FB0703; 20 mg/kg) twice a day at 7 am and at 5 pm, for a total of 7 days. […]
Amoxicillin levels in the pig serum were quantified using a validated liquid chromatography method with MS/MS detection.

[4] = Arm 1: amoxicillin 80 mg/kg oral gavage alone
[5] = Arm 2: amoxicillin 80 mg/kg + one capsule Formulation 2 (TABLE 17), 10 mg SYN-004

Amoxicillin levels in dog serum, 0.50 hr [1, 4]: 17908.396 ng/mL and 16720.439 ng/mL | Amoxicillin levels in dog serum, 2.00 hr [1, 5]: 30317.167 ng/mL and 35935.251 ng/mL | concentration at 10 h ([1]; male, beagle, dog, serum, oral, 80 mg/kg, Arm 1: amoxicillin 80 mg/kg oral gavage alone): 183 ng/mL | concentration at 0.5 h ([1]; male, beagle, dog, serum, oral, 80 mg/kg, Arm 1: amoxicillin 80 mg/kg oral gavage alone, read-out: Amoxicillin levels in dog serum, 0.50 hr): 12600 ng/mL | concentration at 2 h ([1]; male, beagle, dog, serum, oral, Arm 2: amoxicillin 80 mg/kg + one capsule Formulation 2 (TABLE 17), 10 mg SYN-004): 18700 ng/mL | area under the curve, Arm 1 versus Arm 2 ([1]; serum amoxicillin, each animal): similar | concentration at 3 h ([2]; Yorkshire, pig, serum, oral, 40 mg/kg, Amoxicillin Serum Levels (ng/ml) Mean, alone or with SYN-004 0.5 mg, 5 pigs, heading: Amoxicillin Serum Levels Mean): 182 ng/mL | concentration at 3 h ([3]; Amoxicillin (ng/ml) 3 hours): 1160 to 2320 ng/mL | concentration at 6 h ([3]; Amoxicillin (ng/ml) 6 hours): 667 to 1160 ng/mL
SMILES: CC1(C)S[C@@H]2[C@H](NC(=O)[C@H](N)c3ccc(O)cc3)C(=O)N2[C@H]1C(=O)O [Amoxicillin]
Amoxicillin levels in dog serum, 0.00 hr [1, 4]: BLQ (BLQ: Below lower limit of quantitation) | Amoxicillin levels in dog serum, 0.00 hr [1, 5]: BLQ (BLQ: Below lower limit of quantitation) | Amoxicillin Serum Levels (ng/ml), individual animal ([2]; alone or with one capsule SYN-004 modified nested formulation (0.5 mg)): 29647 ng/mL and 6498 ng/mL and 25130 ng/mL and 14936 ng/mL and 14757 ng/mL
